# In patent US20250066286A1, “COMPOSITIONS OF (Z)-ENDOXIFEN AND METHODS OF ENRICHMENT THEREOF” (Atossa Therapeutics, Inc., priority 2022, published 2025):
# Where two headings read alike, the source gives them in different places.
# Assays:
# Type in all cases: physicochemical
# [1] = Storage stability of polymorphic forms at room temperature in a sealed vial (XRPD time course)
# Experimental: Form I samples were collected for XR-PD analysis following 0, 7, and 42 days of storage, the results of which are shown in FIG. 10.
# The stability of polymorphic Form IV was evaluated over 7 days of storage at room temperature in a sealed vial. Portions of the Form IV samples were collected for XRPD analysis following 0 (Form IV), 3 (Form IV-3D3-storage), and 7 days (Form IV-7D3-storage) of storage, the results of which are shown in FIG. 14.
# The stability of polymorphic Form IV was also evaluated following crystallization from a room temperature 2-propanol/THF 95/5 (v/v) solvent system containing 40 mg/ml (Z)-endoxifen. XPRD was collected immediately after recovery and following 15 days storage at room temperature in a sealed vial. FIG. 15 provides the resultant XRPD patterns following 15 days storage (Form IV-2PR/THF-15D-storage) and 0 days storage (Form IV-2PR/THF-0D-storage), as well as an XRPD spectrum of Form IV (Form IV) obtained from 2-propanol recrystallization.
# Since the room temperature evaporation in acetone yielded a mixture of polymorphic Form I and Form IV XRPD patterns with a very intense unassigned signal at 16.1° 2θ, the sample was re-measured following 7 days storage in a sealed vial. From top to bottom, FIG. 16 provides XRPD patterns of the acetone-generated polymorphs following 7 (EVRT-ACT-7D-storage) and 0 days of storage (EVRT-ACT-0D-storage), a Form IV spectrum (Form IV), and a Form I (Form I) spectrum, respectively.
# Form XVII was further assessed after 3 days storage in a sealed vial at room temperature.
# Form XVIII was further reassessed by XRPD following 3 and 7 days storage at room temperature in a sealed vial. The data from these analyses are summarized in FIG. 24, which (from top to bottom) provides the sample following 7 days storage (Form XVIII-7D-storage), the sample following 3 days storage (Form XVIII-3D-storage), and the sample immediately following crystallization (Form XVIII).
# Form XIX room temperature stability was evaluated with XRPD. XRPD of a Form XIX sample immediately following crystallization (Form XIX) and following 7 days of storage (Form XIX-7D-storage) are shown in FIG. 26.
# The stability of polymorphic Form V was over 10 days of storage at room temperature in a sealed vial. XR-PD was performed following 0, 3, and 10 days storage.
# To evaluate Form VI stability, XRPD spectra of a Form VI sample were collected following 0, 3, and 14 days of room temperature storage in a sealed vial. The resulting XRPD patterns of the sample following 0 (Form VI), 3 (Form VI-3D-storage), and 14 days storage (Form VI-14D-storage) are shown in FIG. 30.
# The stability of polymorphic Form VII was evaluated over 7 days of storage at room temperature in a sealed vial. Portions of the Form VII samples were collected for XRPD analysis over 7 days of storage, the results of which are shown in FIG. 32.
# Form VIII stability over 7 days storage in a sealed vial at room temperature was evaluated with XRPD.
# The stability of Form IX generated by precipitation from an ethyl acetate/heptane solvent system (Form IX Recrystallization (1)) was evaluated over 7 days of storage at room temperature. Portions of the Form IX sample were collected following 0 and 7 days of storage in a sealed vial and analyzed by XRPD analysis to identify possible changes in the polymorph.
# Form IX stability was separately characterized for crystals generated through the addition of (Z)-endoxifen saturated ethyl acetate to heptane (Form IX Recrystallization (2)), which yielded higher crystallinity Form IX than was afforded by heptane addition to (Z)-endoxifen saturated ethyl acetate.
# Form IX stability was further evaluated for crystals generated by precipitation from an acetone/butyl methyl ether (acetone/BME) solvent/antisolvent mixture (Form IX Recrystallization (4)). Portions of the Form IX sample were collected following 0 and 5 days of storage in a sealed vial at room temperature and compared to reference XRPD patterns of Forms VII and IX. […]
# [2] = Mechanical stability: grinding and kneading by ball milling (XRPD); settings: for XRPD pattern after mechanical grinding: 10 minutes ball milling at 30 Hz; for XRPD pattern after kneading: 10 minutes ball milling at 30 Hz with catalytic 2-propanol (2 μl)
# Experimental: Stability tests were performed on mixtures of Form I and Form IV; Form I and Form VII; and Form I, Form IV, and Form VII. In a first mechanical stability test, the polymorphs were analyzed by XRPD following 10 minutes of grinding by ball milling at 30 Hz. In a second mechanical stability test, the polymorphs were analyzed by XRPD following 10 minutes of kneading by ball milling at 30 Hz in the presence of a catalytic amount of 2-propanol (2 μl).
# [3] = Thermogravimetric analysis (TGA), degradation
# Experimental: The TGA profile of Form I is shown in the top panel of FIG. 12 with the heat-flow profile in the middle panel of FIG. 12, and the first derivative of the TGA profile in the bottom pane of FIG. 12. […] A weight loss of 0.2% was detected between 140° C. and 180° C., potentially ascribable to solvent release. Degradation of Form I took place above 270° C. The heat-flow profile included two main peaks around 50° C. and 160° C. The first derivative of the TGA profile indicated a greatest decline in the TGA profile occurred around 400° C., and that weight loss occurred around 320° C.
# [4] = Stability at various temperatures and relative humidities, seven days (XRPD); settings: 7 days
# Experimental: The stabilities of the polymorphs were also assessed at various temperatures and relative humidities. These analyses were performed by storing 20 mg of polymorph samples for seven days at: (1) 25° C. and 100% relative humidity, (2) 40° C. and 75% relative humidity, (3) 25° C. and 60% relative humidity, and (4) at 60° C. and 75% relative humidity. XRPD was collected on the samples following these incubations and compared to XRPD of the samples prior to storage.
# [5] = 25° C. and 100% relative humidity
# [6] = 40° C. and 75% relative humidity
# [7] = 3 days, room temperature, sealed vial
# [8] = 7 days, room temperature, sealed vial
structure (smiles),measurement,setting,value
"CC/C(=C(\c1ccc(O)cc1)c1ccc(OCCNC)cc1)c1ccccc1 [Form I, (Z)-endoxifen]",XRPD change on storage,"[1]; 0, 7, and 42 days of storage",stable under ambient conditions
same,XRPD pattern after mechanical grinding,[2],converted portions of Form I to amorphous endoxifen
same,XRPD pattern after kneading,[2],converted portions of Form I to amorphous endoxifen
same,Degradation temperature (TGA),[3],above 270 °C
same,Degradation temperature (TGA),[3]; sample from scaled-up crystallization,270 °C
same,XRPD pattern after storage,[4]; [5],did not induce detectable changes in the Form I XRPD
same,XRPD pattern after storage,[4]; [6],no significant changes to the XRPD pattern
"CC/C(=C(\c1ccc(O)cc1)c1ccc(OCCNC)cc1)c1ccccc1 [Form IX, (Z)-endoxifen]",XRPD change on storage,"[1]; 5 days, room temperature, sealed vial, Form IX from acetone/butyl methyl ether (Form IX Recrystallization (4))","new signal at 9.1° 2θ, possibly indicating the presence of Form VII as well as partial amorphization of the sample"
same,XRPD change on storage,"[1]; 7 days, room temperature, sealed vial, Form IX Recrystallization (1), ethyl acetate/heptane",stable under ambient conditions
same,XRPD change on storage,"[1]; 7 days, room temperature, sealed vial, Form IX Recrystallization (2)",weak XRPD signals ascribable to small amounts of Form I
same,XRPD change on storage,"[1]; 8 days, room temperature, sealed vial, Form IX from room temperature ethyl acetate/heptane 50/50 (v/v) slurries, unassigned signals at 10.1, 11.7, 16.8, 18.5, 19.4, 23.1",these peaks persisted following 8 days of storage
same,XRPD change on storage,"[1]; 13 days, room temperature, sealed vial, Form IX Recrystallization (2)",weak XRPD signals ascribable to small amounts of Form I
same,Degradation temperature (TGA),[3],above 270 °C
"CC/C(=C(\c1ccc(O)cc1)c1ccc(OCCNC)cc1)c1ccccc1 [Form V, (Z)-endoxifen]",XRPD change on storage,[1]; [7],converted almost completely to Form VI
same,XRPD change on storage,"[1]; 10 days, room temperature, sealed vial",completely to Form VI
"CC/C(=C(\c1ccc(O)cc1)c1ccc(OCCNC)cc1)c1ccccc1 [Form VI, (Z)-endoxifen]",XRPD change on storage,"[1]; 14 days, room temperature, sealed vial",stable under ambient conditions
"CC/C(=C(\c1ccc(O)cc1)c1ccc(OCCNC)cc1)c1ccccc1 [Form VII, (Z)-endoxifen]",XRPD change on storage,[1]; [8],stable under ambient conditions
same,Degradation temperature (TGA),[3],above 270 °C
same,XRPD pattern after storage,[4]; [5],no significant change to the XRPD pattern
same,XRPD pattern after storage,[4]; [6],no significant change to the XRPD pattern
"CC/C(=C(\c1ccc(O)cc1)c1ccc(OCCNC)cc1)c1ccccc1 [Form VIII, (Z)-endoxifen]",XRPD change on storage,[1]; [8],no significant difference
"CC/C(=C(\c1ccc(O)cc1)c1ccc(OCCNC)cc1)c1ccccc1 [Form X, (Z)-endoxifen]",XRPD change on storage,[1]; [8],near complete conversion to Form XI
"CC/C(=C(\c1ccc(O)cc1)c1ccc(OCCNC)cc1)c1ccccc1 [Form XI, (Z)-endoxifen]",XRPD change on storage,"[1]; 18 days, room temperature",stable under ambient conditions
"CC/C(=C(\c1ccc(O)cc1)c1ccc(OCCNC)cc1)c1ccccc1 [Form XII, (Z)-endoxifen]",XRPD change on storage,"[1]; 2 days, room temperature, sealed vial",stable under ambient conditions
"CC/C(=C(\c1ccc(O)cc1)c1ccc(OCCNC)cc1)c1ccccc1 [Form XIV, (Z)-endoxifen]",XRPD change on storage,[1]; [7],partial conversion to Forms I and VII
same,XRPD change on storage,[1]; [8],partial conversion to Forms I and VII
"CC/C(=C(\c1ccc(O)cc1)c1ccc(OCCNC)cc1)c1ccccc1 [Form XIX, (Z)-endoxifen]",XRPD change on storage,[1]; [8],stable under ambient conditions
"CC/C(=C(\c1ccc(O)cc1)c1ccc(OCCNC)cc1)c1ccccc1 [Form XV, (Z)-endoxifen]",Room temperature stability,[1]; duration not given,limited room temperature stabilities
"CC/C(=C(\c1ccc(O)cc1)c1ccc(OCCNC)cc1)c1ccccc1 [Form XVII, (Z)-endoxifen]",XRPD change on storage,[1]; [7],complete conversion of Form XVII (Form XVII) into Form I
"CC/C(=C(\c1ccc(O)cc1)c1ccc(OCCNC)cc1)c1ccccc1 [Form XVIII, (Z)-endoxifen]",XRPD change on storage,[1]; [8],partial amorphization
"CC/C(=C(\c1ccc(O)cc1)c1ccc(OCCNC)cc1)c1ccccc1 [Forms I and IV polymorphic mixture, (Z)-endoxifen]",XRPD change on storage,[1]; [8],No significant changes were detected
"CC/C(=C(\c1ccc(O)cc1)c1ccc(OCCNC)cc1)c1ccccc1 [first mixture of Form I and Form VII, (Z)-endoxifen]",XRPD pattern after mechanical grinding,[2],amorphous (Z)-endoxifen with signals ascribable to Form I and Form VII
"CC/C(=C(\c1ccc(O)cc1)c1ccc(OCCNC)cc1)c1ccccc1 [mixture of Form I and Form IV, (Z)-endoxifen]",XRPD pattern after mechanical grinding,[2],Form I with traces of Form IV
same,XRPD pattern after kneading,[2],Form I with a signal at 4.8° 20 ascribable to Form IV
same,XRPD pattern after storage,[4]; 25° C./60% RH,mixture of Form I and Form IV
same,XRPD pattern after storage,[4]; 60° C./75% RH,XRPD pattern of Form I
"CC/C(=C(\c1ccc(O)cc1)c1ccc(OCCNC)cc1)c1ccccc1 [mixture of Form I, Form IV, and Form VII, (Z)-endoxifen]",XRPD pattern after mechanical grinding,[2],Form I with a slightly lowered degree of crystallinity
same,XRPD pattern after kneading,[2],Form I with a mild signal at 4.8° 20 ascribable to Form IV
same,XRPD pattern after storage,[4]; 25° C./60% RH,"mixture of Form I, Form IV, and Form VII"
same,XRPD pattern after storage,[4]; 60° C./75% RH,mixture of Form I and Form VII
"CC/C(=C(\c1ccc(O)cc1)c1ccc(OCCNC)cc1)c1ccccc1 [mixture of Form XII and Form XIII, (Z)-endoxifen]",XRPD change on storage,"[1]; 4 days, room temperature, sealed vial",conversion of Form XIII to Form XII
same,XRPD change on storage,"[1]; 5 days total, room temperature, sealed vial",conversion to only Form XII
"CC/C(=C(\c1ccc(O)cc1)c1ccc(OCCNC)cc1)c1ccccc1 [second mixture of Form I and Form VII, (Z)-endoxifen]",XRPD pattern after mechanical grinding,[2],Form I and Form VII with slightly lowered crystallinity
